According to the supplement of paper PMC11451515:

Legend:
Settings in all cases: 48 h
NOMO1 [1] = assay: cell viability relative to DMSO control; higher = less cytotoxic
How it was run: (§1)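 Library compounds in DMSO were pin-dosed into 1536-well plates (5 μl) holding NOMO1 or SEM (500 cells/well) or P12-Ichikawa (1000 cells/well) leukemia cells, across an 11-point threefold series of 47 μM to 0.79 nM. Each cell line had been adapted for at least four passages in each medium. CellTiter-Glo One luminescence was read after 48 h at 37°C. Viability is the per-plate percentage relative to DMSO wells, with cell-free wells as background.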

P12-Ichikawa [2] = assay: as above
How it was run: as §1

SEM cells [3] = assay: as above
How it was run: as §1

NOMO1 [4] = assay: AUC of viability dose-response curve (% viability x log10 dose units); higher = less sensitive
How it was run: (§2)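 Medium-adapted leukemia cells in 1536-well plates, at 500 or 1000 cells/well, were incubated for 48 h at 37°C with library compounds in DMSO at 11 threefold doses from 47 μM to 0.79 nM. CellTiter-Glo One luminescence normalised per plate to DMSO and cell-free wells was fitted with a four-parameter log-logistic model over log10 doses. Area under the curve was integrated from this fit by trapezoidal rule, with curves beyond full viability scaled and failed quality-control curves removed.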

P12-Ichikawa [5] = assay: as above
How it was run: as §2

SEM cells [6] = assay: as above
How it was run: as §2

Oc1ccc2c3c1O[C@H]1c4[nH]c5c(c4C[C@@]4(O)[C@@H](C2)N(CC2CC2)CC[C@]314)C[C@@]1(O)[C@H]2Cc3ccc(O)c4c3[C@@]1(CCN2CC1CC1)[C@H]5O4
cell viability [%]
Settings	NOMO1 [1]	P12-Ichikawa [2]	SEM cells [3]
HPLM + 10% dialyzed FBS, 0.000781 µM	92.7	100	70.3
HPLM + 10% dialyzed FBS, 0.00234 µM	104	111	88.3
HPLM + 10% dialyzed FBS, 0.00702 µM	114	113	101
HPLM + 10% dialyzed FBS, 0.0211 µM	116	117	92.6
HPLM + 10% dialyzed FBS, 0.0632 µM	116	120	108
HPLM + 10% dialyzed FBS, 0.19 µM	136	118	99.4
HPLM + 10% dialyzed FBS, 0.569 µM	108	130	98.4
HPLM + 10% dialyzed FBS, 1.71 µM	115	121	107
HPLM + 10% dialyzed FBS, 5.12 µM	129	120	113
HPLM + 10% dialyzed FBS, 15.4 µM	132	119	113
HPLM + 10% dialyzed FBS, 46.1 µM	131	121	119
RPMI 5 mM glucose + 10% FBS, 0.000781 µM	99.8	114	86.9
RPMI 5 mM glucose + 10% FBS, 0.00234 µM	122	123	80.2
RPMI 5 mM glucose + 10% FBS, 0.00702 µM	110	118	102
RPMI 5 mM glucose + 10% FBS, 0.0211 µM	116	122	85.7
RPMI 5 mM glucose + 10% FBS, 0.0632 µM	128	122	123
RPMI 5 mM glucose + 10% FBS, 0.19 µM	118	124	119
RPMI 5 mM glucose + 10% FBS, 0.569 µM	125	115	123
RPMI 5 mM glucose + 10% FBS, 1.71 µM	120	126	128
RPMI 5 mM glucose + 10% FBS, 5.12 µM	116	127	131
RPMI 5 mM glucose + 10% FBS, 15.4 µM	123	137	119
RPMI 5 mM glucose + 10% FBS, 46.1 µM	134	132	123
RPMI 5 mM glucose + 10% dialyzed FBS, 0.000781 µM	98	97.8	89.5
RPMI 5 mM glucose + 10% dialyzed FBS, 0.00234 µM	127	110	92.6
RPMI 5 mM glucose + 10% dialyzed FBS, 0.00702 µM	112	113	104
RPMI 5 mM glucose + 10% dialyzed FBS, 0.0211 µM	122	112	80.3
RPMI 5 mM glucose + 10% dialyzed FBS, 0.0632 µM	123	120	107
RPMI 5 mM glucose + 10% dialyzed FBS, 0.19 µM	126	123	106
RPMI 5 mM glucose + 10% dialyzed FBS, 0.569 µM	122	117	111
RPMI 5 mM glucose + 10% dialyzed FBS, 1.71 µM	110	122	107
RPMI 5 mM glucose + 10% dialyzed FBS, 5.12 µM	108	119	98.4
RPMI 5 mM glucose + 10% dialyzed FBS, 15.4 µM	124	129	99.6
RPMI 5 mM glucose + 10% dialyzed FBS, 46.1 µM	119	134	113

AUC of viability dose-response curve
Settings	NOMO1 [4]	P12-Ichikawa [5]	SEM cells [6]
HPLM + 10% dialyzed FBS	448	463	422
RPMI 5 mM glucose + 10% FBS	443	440	429
RPMI 5 mM glucose + 10% dialyzed FBS	472	428	454
